The test system of one test is panel of trained testers. The test is described as follows: Taste profile of the pure substance in saline or sugar solution, tasting by a panel of trained testers. The class given is in vivo, human. The conditions noted are these: for Taste profile: pure substance in saline or sugar solution; for Umami character: own tests, tasting. From the text:
The ethyl ester (3) of a partially hydrogenated geranyl derivate has already been described in the literature (Maslozhirovaya Promyshlennost 1983, 4, 26-27). In the context of our own tests the corresponding methyl ester (4) during tasting by a panel of trained testers was described as very neutral; the corresponding methyl amine (5) was assigned fruity notes (see Table 2 contained within the examples of the present text). In the following, selected substances manufactured according to the general instructions described above are presented. In each case the taste profiles have been determined by determining the taste impression of the respective substance as a pure substance in saline or sugar solution and therefore deviate from the taste impressions (in beef extracts) shown in Table 1 and FIG. 1. The following structures are further examples from this substance class, prepared and tasted according to AAV 1 and AAV 2—on the basis of various alcohols and amines.

Test [1] can be described thus: Sensory profile in American beef extract base (Table 1, FIG. 1). The class given is in vivo. Further details: scale not given here. The source says:
This is also shown in Table 1 and the spider diagram in FIG. 1, in which an American beef extract as a base is compared with such a base plus the addition of 10 ppm of a compound (I) according to the invention and/or 10 ppm of a compound of formula (II) according to the invention and with such a base plus the addition of 0.05 weight % of MSG (monosodium glutamate).

Test [2] relates to panel of trained test persons. As to the kind of experiment: Application in green tea drink, tasting panel. The class given is in vivo, human. To be noted: green tea drink with 0.008 weight % of a 1% solution in propylene glycol. As to the method: The green tea concentrate is mixed with a 1% solution of N-((E)-3,7-dimethyl-octa-2,6-dienyl)-oxalamide methyl ester (I) in propylene glycol. Then it is topped up with demineralized water and thoroughly mixed again. The product is then filtered, packaged ready for consumption and sterilized at 118° C.

Where [3] appears, read: beef extract + 0.05 weight % MSG.

On to `CNC(=O)C(=O)OC/C=C(\C)CCC=C(C)C`, for which, in the test on panel of trained testers, the Taste profile result was “soapy, flowery, per- fumey”.
On the same count and under the same terms, the result for `COC(=O)C(=O)NCC=C(C)C` reads “taste of its own, sol- vent”; that for `CNC(=O)C(=O)NCC=C(C)C`, “neutral”; that for `COC(=O)C(=O)NCCC(C)CCCC(C)C` (stereo not shown), “fatty, bitter, metallic”.
`CNC(=O)C(=O)NCCC(C)CCCC(C)C` (stereo not shown): in the test on panel of trained testers, the Taste profile result was “neutral”.
As to `N[C@@H](CCC(=O)O)C(=O)[O-].[Na+]` [MSG, monosodium glutamate, reference compound], in test [1] (setting [3]), the “Baked, roasted” value was 5.00; the Bitter was determined as 1.35; the Meaty was determined as 5.47; the Metallic was found to be 3.47. Besides, in test [1] (setting [3]), the Mouth-watering stood at 4.53, the Mouthfeel is on record as 5.41, the Salty amounted to 3.29 and the Sour is reported as 2.94. In addition, in test [1] (setting [3]), the Sweet is on record as 2.41 and the “Tenacity, long-lasting” value stood at 5.06.
In the case of `CC(C)=CCC/C(C)=C/CNC(=O)C(=O)NC/C=C(\C)CCC=C(C)C` [formula (1), N,N′-Bis-((E)-3,7-dimethyl-octa-2,6-dienyl)-oxalamide], in the test with panel of trained testers, the Umami character entry was “did not demonstrate any umami character” and the Taste profile entry was “neutral, slightly hot”.
Turning to `CC(C)=CCC/C(C)=C\CNC(=O)C(=O)NC/C=C(/C)CCC=C(C)C` [formula (2), N,N′-Bis-((Z)-3,7-dimethyl-octa-2,6-dienyl)-oxalamide], in the test with panel of trained testers, the Umami character entry is “did not demonstrate any umami character” and the Taste profile result is on record as “neutral, slight burning”.
In the case of `COC(=O)C(=O)NCCC(C)CCC=C(C)C` (stereo not shown) [formula (4)], the Taste profile result is reported as “very neutral” in the test on panel of trained testers (listed as (4)) and “neutral” with panel of trained testers (listed as drawing 23).
In the case of `CNC(=O)C(=O)NCCC(C)CCC=C(C)C` (stereo not shown) [formula (5)], the Taste profile result in the test with panel of trained testers (listed as (5)) is “fruity notes”; with panel of trained testers (listed as drawing 24) it was “fruity”.
As to `CCOC(=O)C(=O)NC/C=C(\C)CCC=C(C)C` [formula (6), N-((E)-3,7-dimethyl-octa-2,6-dienyl)-oxalic acid amide-ethyl-ester], the Taste profile result in the test on panel of trained testers is “musty, herbaceous and chemical”.
Consider `CCNC(=O)C(=O)NC/C=C(\C)CCC=C(C)C` [formula (7)], for which the results for the Taste profile entry in the test on panel of trained testers (listed as (7)) and in the test on panel of trained testers (listed as drawing 19) were “very neutral” and “neutral”, respectively.
For the compound `COC(=O)C(=O)NC/C=C(\C)CCC=C(C)C` [formula (I), N-((E)-3,7-dimethyl-octa-2,6-dienyl)-oxalic acid amide-methyl-ester], in test [1] (beef extract + 10 ppm compound), the “Baked, roasted” value is listed as 3.55; the Bitter was 1.36; the Meaty stood at 4.55; the Metallic stood at 3.82. Also, in test [1] (beef extract + 10 ppm compound), the Mouth-watering amounted to 3.64, the Mouthfeel came out at 4.45, the Salty is reported as 2.64 and the Sour is 2.91. In addition, in test [1] (beef extract + 10 ppm compound), the Sweet turned out to be 1.36 and the “Tenacity, long-lasting” value worked out at 3.73. The “Taste compared with the unflavored green tea base” value in test [2] is given as “markedly preferable”. In addition, in the test with panel of trained testers, the Umami character result is recorded as “clear umami taste” and the Taste profile entry was “sweet, full, prickling, umami”.
`CNC(=O)C(=O)NC/C=C(\C)CCC=C(C)C` [formula (II), N-((E)-3,7-dimethyl-octa-2,6-dienyl)-N′-methyl-oxalamide]: in test [1] (beef extract + 10 ppm compound), the “Baked, roasted” value was found to be 4.27; the Bitter worked out at 1.00; the Meaty worked out at 5.09; the Metallic is 3.55. Also, in test [1] (beef extract + 10 ppm compound), the Mouth-watering is 4.14, the Mouthfeel stood at 4.73, the Salty turned out to be 2.82 and the Sour stood at 2.45. In test [1] (beef extract + 10 ppm compound), the Sweet was 2.27 and the “Tenacity, long-lasting” value was 4.64. Further, in the test on panel of trained testers, the Umami character result is “clear umami taste” and the Taste profile entry is recorded as “meaty, full, metallic, umami”.
Consider `COC(=O)C(=O)NC/C=C(/C)CCC=C(C)C` [formula (III), N-((Z)-3,7-dimethyl-octa-2,6-dienyl)-oxalic acid amide-methyl-ester], for which, in the test with panel of trained testers, the Umami character result is “do not in fact have any umami character” and the Taste profile result is recorded as “musty, bitter, long-lasting”.
With `CNC(=O)C(=O)NC/C=C(/C)CCC=C(C)C` [formula (IV), N-((Z)-3,7-dimethyl-octa-2,6-dienyl)-N′-methyl-oxalamide], in the test on panel of trained testers, the Umami character result is reported as “do not in fact have any umami character” and the Taste profile entry is “sour”.

Source of the values: patent US8273398B2, “Geranylamine derivates of oxalic acid” (Symrise AG, priority 2008, dated 2012).
